Consider two compounds from patent US11845747B2, “Ester and carbonate pyrimidine compounds as JAK kinase inhibitors” (priority 2019, dated 2023).

The nature of data set [1]: In vitro skin S9 metabolic stability assay (mouse). The class given is in vitro ADME. Conditions: mouse skin S9 sub-fraction, pH 7.4, 1.0 mg/mL protein, 1 mM NADPH, read-out: Half-Life; for half-life at 0.2 μM: Mouse skin S9, 0.2 μM; for half-life at 2 μM: Mouse skin S9, 2 μM. How it is done:
(§1) Assay 6: In Vitro Skin S9 Metabolic Stability Assay
(§2) The objective of this assay was to assess the metabolic stability of compounds in human and mouse skin S9 sub-fraction. Human and mouse skin S9 sub-fractions obtained from Bioreclamation-IVT (Baltimore, Md.) were thawed on ice and diluted into 0.1M potassium phosphate buffer pH 7.4 to yield final incubation protein concentrations of 1.0 mg/mL. Test compounds (10 mM) were diluted into phosphate buffer to yield final incubation concentrations of 0.2 μM and 2.0 μM. Incubations were conducted at 37° C. temperature following addition of 1 mM NADPH and test aliquots were taken at time points 0, 5, 10, 20, 30 and 45 minutes. Each aliquot was crashed into water with 3% formic acid and 1 μM internal standard. The resulting samples were injected onto an LC-MS/MS system for analysis.
(§3) For each incubation, the peak area of the analytes in each t0 aliquot was set to 100% and the peak areas from subsequent time point aliquots were converted to percentage of parent compound remaining relative to t0. The percentage of parent compound remaining at each time point was converted to natural log scale and plotted versus time in minutes to determine a disappearance half-life.

The nature of data set [2]: In vitro skin S9 metabolic stability assay (human). The settings on record: human skin S9 sub-fraction, pH 7.4, 1.0 mg/mL protein, 1 mM NADPH, read-out: Half-Life; for half-life at 0.2 μM: Human skin S9, 0.2 μM; for half-life at 2 μM: Human skin S9, 2 μM. The class given is in vitro ADME. Here is the method: as §1, §2, §3

The term half-life denotes how long it takes for the measured level to halve. On to `CCOc1ccc2ccc(=O)oc2c1` [7-Ethoxycoumarin, reference compound], for which the half-life at 0.2 μM in data set [1] and in data set [2] was above 30 min in each case. Besides, the half-life at 2 μM in data set [1] and in data set [2] was above 30 min in each case.

For the compound `CC(Cc1cccc(C(F)(F)F)c1)NCCOC(=O)c1ccccc1` (centres unmarked) [Benfluorex, reference compound], in data set [1], the half-life at 0.2 μM was below 15 min and the half-life at 2 μM is below 15 min. For the same compound, in data set [2], the half-life at 0.2 μM was below 15 min and the half-life at 2 μM is below 15 min.
